One assay deals with peritoneal macrophages. As to the kind of experiment: ELISA quantification of cytokine produced by peritoneal macrophages. The class given is in vivo, mice. How it is done: Peritoneal cells were recovered two weeks after unterus transfer in cold PBS, 2 mM EDTA, by peritoneal lavage of treated (Compound A at 100 ug/kg) and untreated (vehicle only) animals prepared according to the procedure described previously in Examples 1 to 3 (pool of 5 mice per group). Peritoneal macrophages were counted directly after collection using Turk reagent, washed, and placed into culture with RPMI/glutamax 5% FC I, pen/strep, Na pyruvate. After 2 hr at 37° C. the non adherent cells were removed and the macrophages were cultured for a further 48 hr. The supernatant was harvested and cytokines (TNF-alpha, IL1-alpha, IL1-beta, IL6, MIP-2 and VEGF) were quantified using a specific ELISA (R&D System DuoSet). All ELISA determinations were performed in duplicate on the undiluted sample. The total cells number plated was assessed by CyQuant test and values of protein production were normalized to cell number.
For orientation: An ELISA detects its analyte on a solid surface through an enzyme-linked reagent.

Assay [1] relates to Eutopic endometrium stromal cells. As to the kind of experiment: Proliferation of endometrial stromal cells in vitro (CyQuant), eutopic. The class given is cell-based. The note with it: 1 uM-0.1 nM, 48-96 hours; FIG. 2A. As for the experimental part:
Tissue was gently minced into small pieces (1 to 2 mm^3) and incubated at 37° C. for 1 h with 0.1% type A collagenase. At the end of the incubation, single stromal cells were separated from large clumps of epithelium by a 10 min. period of differential sedimentation at unity gravity. The top 8 ml of medium, containing predominantly stromal cells, were then slowly removed and the cells were collected by centrifugation. The stromal-enriched fraction was washed twice in culture medium and allowed to adhere selectively to tissue culture dishes for 15 min.
Thereafter, nonattached epithelial cells still present were removed and a purified stromal preparation was obtained on the surface of the culture dishes.
The cells were maintained in DMEM supplemented with 10% Fetal Bovine Serum (SIGMA) and 100 U/ml penicillin, 100 ug/ml streptomycin (GIBCO cat. no. 15140-122).
When the stromal cells were grown to confluence, were washed in PBS and then trypsinized using 1× trypsin/EDTA solution (PromoCell cat. no. C-41002). […] The proliferation was determined with CyQuant Cell Proliferation Assay (Molecular Probe cat. no. C7026). […]
The fluorescence was determined using a fluorescence microplate reader with filters appropriate for ˜480 nm excitation and ˜520 nm emission.

Turning to `C=C1/C(=C\C=C2/CCC[C@]3(C)C([C@@H](C)C/C=C/C(O)(CC)CC)=CC[C@@H]23)C[C@@H](O)C[C@@H]1F` [Compound A, 1-alpha-fluoro-25-hydroxy-16,23E-diene-26,27-bishomo-20-epi-cholecalciferol], the “inflammatory cytokine and VEGF production (TNF-alpha, IL1-alpha, IL1-beta, IL6, MIP-2, VEGF)” value with peritoneal macrophages (100 ug/kg versus vehicle, macrophages recovered two weeks after uterus transfer, cultured 48 hr, FIG. 11) is recorded as “dramatically reduced”. Besides, the “cytokine production after re-activation in vitro with LPS” value in the assay on peritoneal macrophages (macrophages of treated animals, data not shown) is “still capable of producing the same cytokines”. The “cell proliferation, Eutopic endometrium” value in assay [1] was “reduction in cell proliferation”.

(Values after patent US20080280860A1, “Use of Vitamin D Compounds to Treat Endometriosis” (BioXell S.p.A., priority 2005, published 2008).)
